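Tested at 5 concentrations; 48 h exposure; 96-well plates; endpoints linearly interpolated, else capped at highest concentration. TGI: total growth inhibition.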
What was measured:
Experiment in all cases: growth of human tumour cells (NCI), 48 h
NCI-H23 lung = test system: NCI-H23 lung
A498 renal = test system: A498 renal
HL-60(TB) leukemia = test system: HL-60(TB) leukemia
SK-MEL-2 melanoma = test system: SK-MEL-2 melanoma
OVCAR-3 ovarian = test system: OVCAR-3 ovarian
RPMI-8226 leukemia = test system: RPMI-8226 leukemia
TK-10 renal = test system: TK-10 renal
786-0 renal = test system: 786-0 renal
HOP-92 NSCLC = test system: HOP-92 NSCLC
K-562 leukemia = test system: K-562 leukemia
OVCAR-4 ovarian = test system: OVCAR-4 ovarian
UACC-257 melanoma = test system: UACC-257 melanoma
HCC-2998 colon = test system: HCC-2998 colon
DU-145 prostate = test system: DU-145 prostate
HOP-62 NSCLC = test system: HOP-62 NSCLC
SN12C renal = test system: SN12C renal
BT-549 breast = test system: BT-549 breast
SK-MEL-28 melanoma = test system: SK-MEL-28 melanoma
T-47D breast = test system: T-47D breast
HT29 colon = test system: HT29 colon
SK-OV-3 ovarian = test system: SK-OV-3 ovarian
UACC-62 melanoma = test system: UACC-62 melanoma
RXF 393 renal = test system: RXF 393 renal
M14 melanoma = test system: M14 melanoma
CCRF-CEM leukemia = test system: CCRF-CEM leukemia
NCI-H522 lung = test system: NCI-H522 lung
SF-268 CNS = test system: SF-268 CNS
SW-620 colon = test system: SW-620 colon
EKVX NSCLC = test system: EKVX NSCLC
NCI/ADR-RES ovarian = test system: NCI/ADR-RES ovarian
LOX IMVI melanoma = test system: LOX IMVI melanoma
MDA-N = test system: MDA-N
MDA-MB-231 breast = test system: MDA-MB-231 breast
HCT-116 colon = test system: HCT-116 colon
OVCAR-8 ovarian = test system: OVCAR-8 ovarian
ACHN renal = test system: ACHN renal
A549 NSCLC = test system: A549 NSCLC
KM12 colon = test system: KM12 colon
OVCAR-5 ovarian = test system: OVCAR-5 ovarian
SK-MEL-5 melanoma = test system: SK-MEL-5 melanoma
CAKI-1 renal = test system: CAKI-1 renal
MALME-3M melanoma = test system: MALME-3M melanoma
MCF7 breast = test system: MCF7 breast
NCI-H460 lung = test system: NCI-H460 lung
UO-31 renal = test system: UO-31 renal
IGROV1 ovarian = test system: IGROV1 ovarian
SNB-19 CNS = test system: SNB-19 CNS
SF-295 CNS = test system: SF-295 CNS
SNB-75 CNS = test system: SNB-75 CNS
U251 CNS = test system: U251 CNS
MDA-MB-435 = test system: MDA-MB-435
SR leukemia = test system: SR leukemia
HCT-15 colon = test system: HCT-15 colon
HS 578T breast = test system: HS 578T breast
COLO 205 colon = test system: COLO 205 colon
NCI-H226 lung = test system: NCI-H226 lung
SF-539 CNS = test system: SF-539 CNS
MOLT-4 leukemia = test system: MOLT-4 leukemia

O=P(O)(O)OC1OC(CO)C(O)C(O)C1O (stereo not given)
TGI (NCI-H23 lung): > 100 µM | TGI (A498 renal): > 100 µM | TGI (HL-60(TB) leukemia): > 100 µM | TGI (SK-MEL-2 melanoma): > 100 µM | TGI (OVCAR-3 ovarian): > 100 µM | TGI (RPMI-8226 leukemia): > 100 µM | TGI (TK-10 renal): > 100 µM | TGI (786-0 renal): > 100 µM | TGI (HOP-92 NSCLC): > 100 µM | TGI (K-562 leukemia): > 100 µM | TGI (OVCAR-4 ovarian): > 100 µM | TGI (UACC-257 melanoma): > 100 µM | TGI (HCC-2998 colon): > 100 µM | TGI (DU-145 prostate): > 100 µM | TGI (HOP-62 NSCLC): > 100 µM | TGI (SN12C renal): > 100 µM | TGI (BT-549 breast): > 100 µM | TGI (SK-MEL-28 melanoma): > 100 µM | TGI (T-47D breast): > 100 µM | TGI (HT29 colon): > 100 µM | TGI (SK-OV-3 ovarian): > 100 µM | TGI (UACC-62 melanoma): > 100 µM | TGI (RXF 393 renal): > 100 µM | TGI (M14 melanoma): > 100 µM | TGI (CCRF-CEM leukemia): > 100 µM | TGI (NCI-H522 lung): > 100 µM | TGI (SF-268 CNS): > 100 µM | TGI (SW-620 colon): > 100 µM | TGI (EKVX NSCLC): > 100 µM | TGI (NCI/ADR-RES ovarian): > 100 µM | TGI (LOX IMVI melanoma): > 100 µM | TGI (MDA-N): > 100 µM | TGI (MDA-MB-231 breast): > 100 µM | TGI (HCT-116 colon): > 100 µM | TGI (OVCAR-8 ovarian): > 100 µM | TGI (ACHN renal): > 100 µM | TGI (A549 NSCLC): > 100 µM | TGI (KM12 colon): > 100 µM | TGI (OVCAR-5 ovarian): > 100 µM | TGI (SK-MEL-5 melanoma): > 100 µM | TGI (CAKI-1 renal): > 100 µM | TGI (MALME-3M melanoma): > 100 µM | TGI (MCF7 breast): > 100 µM | TGI (NCI-H460 lung): > 100 µM | TGI (UO-31 renal): > 100 µM | TGI (IGROV1 ovarian): > 100 µM | TGI (SNB-19 CNS): > 100 µM | TGI (SF-295 CNS): > 100 µM | TGI (SNB-75 CNS): > 100 µM | TGI (U251 CNS): > 100 µM | TGI (MDA-MB-435): > 100 µM | TGI (SR leukemia): > 100 µM | TGI (HCT-15 colon): > 100 µM | TGI (HS 578T breast): > 100 µM

O=C(Nc1ccccc1Cl)c1cc(S(=O)(=O)Nc2n[nH]c(=O)n2-c2ccccc2)c(S)cc1Cl
TGI (COLO 205 colon): > 100 µM | TGI (NCI-H23 lung): > 100 µM | TGI (A498 renal): > 100 µM | TGI (HL-60(TB) leukemia): > 100 µM | TGI (SK-MEL-2 melanoma): > 100 µM | TGI (OVCAR-3 ovarian): > 100 µM | TGI (NCI-H226 lung): > 100 µM | TGI (RPMI-8226 leukemia): > 100 µM | TGI (786-0 renal): > 100 µM | TGI (HOP-92 NSCLC): > 100 µM | TGI (OVCAR-4 ovarian): > 100 µM | TGI (UACC-257 melanoma): > 100 µM | TGI (HCC-2998 colon): > 100 µM | TGI (DU-145 prostate): > 100 µM | TGI (HOP-62 NSCLC): > 100 µM | TGI (SN12C renal): > 100 µM | TGI (BT-549 breast): > 100 µM | TGI (SK-MEL-28 melanoma): > 100 µM | TGI (T-47D breast): > 100 µM | TGI (HT29 colon): > 100 µM | TGI (SK-OV-3 ovarian): > 100 µM | TGI (UACC-62 melanoma): > 100 µM | TGI (RXF 393 renal): > 100 µM | TGI (M14 melanoma): > 100 µM | TGI (CCRF-CEM leukemia): > 100 µM | TGI (SF-539 CNS): > 100 µM | TGI (SF-268 CNS): > 100 µM | TGI (SW-620 colon): > 100 µM | TGI (EKVX NSCLC): > 100 µM | TGI (NCI/ADR-RES ovarian): > 100 µM | TGI (LOX IMVI melanoma): > 100 µM | TGI (MDA-N): > 100 µM | TGI (MDA-MB-231 breast): > 100 µM | TGI (OVCAR-8 ovarian): > 100 µM | TGI (KM12 colon): > 100 µM | TGI (MOLT-4 leukemia): > 100 µM | TGI (OVCAR-5 ovarian): > 100 µM | TGI (SK-MEL-5 melanoma): > 100 µM | TGI (CAKI-1 renal): > 100 µM | TGI (MALME-3M melanoma): > 100 µM | TGI (MCF7 breast): > 100 µM | TGI (NCI-H460 lung): > 100 µM | TGI (UO-31 renal): > 100 µM | TGI (IGROV1 ovarian): > 100 µM | TGI (SNB-19 CNS): > 100 µM | TGI (SF-295 CNS): > 100 µM | TGI (U251 CNS): > 100 µM | TGI (MDA-MB-435): > 100 µM | TGI (SR leukemia): > 100 µM | TGI (HCT-15 colon): > 100 µM | TGI (HS 578T breast): > 100 µM

CCOC(=O)c1nc2ccccc2nc1Nc1ccc(Cl)c(Cl)c1
TGI (COLO 205 colon): > 100 µM | TGI (NCI-H23 lung): > 100 µM | TGI (HL-60(TB) leukemia): > 100 µM | TGI (SK-MEL-2 melanoma): > 100 µM | TGI (OVCAR-3 ovarian): > 100 µM | TGI (RPMI-8226 leukemia): > 100 µM | TGI (TK-10 renal): > 100 µM | TGI (786-0 renal): > 100 µM | TGI (HOP-92 NSCLC): 44.5 µM | TGI (K-562 leukemia): > 100 µM | TGI (OVCAR-4 ovarian): > 100 µM | TGI (HCC-2998 colon): > 100 µM | TGI (DU-145 prostate): > 100 µM | TGI (HOP-62 NSCLC): 63 µM | TGI (SN12C renal): > 100 µM | TGI (BT-549 breast): 49.5 µM | TGI (SK-MEL-28 melanoma): > 100 µM | TGI (T-47D breast): > 100 µM | TGI (HT29 colon): > 100 µM | TGI (SK-OV-3 ovarian): 47.1 µM | TGI (UACC-62 melanoma): 83.2 µM | TGI (M14 melanoma): > 100 µM | TGI (NCI-H522 lung): > 100 µM | TGI (SF-539 CNS): > 100 µM | TGI (SF-268 CNS): > 100 µM | TGI (EKVX NSCLC): > 100 µM | TGI (NCI/ADR-RES ovarian): > 100 µM | TGI (MDA-N): > 100 µM | TGI (MDA-MB-231 breast): > 100 µM | TGI (HCT-116 colon): > 100 µM | TGI (OVCAR-8 ovarian): > 100 µM | TGI (ACHN renal): > 100 µM | TGI (A549 NSCLC): > 100 µM | TGI (KM12 colon): > 100 µM | TGI (MOLT-4 leukemia): > 100 µM | TGI (OVCAR-5 ovarian): > 100 µM | TGI (SK-MEL-5 melanoma): 65.5 µM | TGI (CAKI-1 renal): 70.9 µM | TGI (MALME-3M melanoma): 93.9 µM | TGI (MCF7 breast): > 100 µM | TGI (NCI-H460 lung): > 100 µM | TGI (UO-31 renal): > 100 µM | TGI (IGROV1 ovarian): > 100 µM | TGI (SNB-19 CNS): > 100 µM | TGI (SNB-75 CNS): 68.4 µM | TGI (U251 CNS): > 100 µM | TGI (MDA-MB-435): > 100 µM | TGI (SR leukemia): > 100 µM | TGI (HCT-15 colon): > 100 µM | TGI (HS 578T breast): > 100 µM

— PubChem BioAssay (NCI)
